From patent publication US11591313B2, “Inhibitors of ectonucleotide pyrophosphatase/phosphodiesterase 1 (ENPP1) and methods of use thereof” (Stingray Therapeutics, Inc., priority 2020, dated 2023)
Where a name gives a salt, the structure may show the parent alone. Read-outs that look alike come from different tables or passages of the source.

Legend:
[1] = target: Recombinant Human ENPP-2/Autotaxin (rhENPP-2) (Homo sapiens (Human), UniProt Q13822); experiment: ENPP2 Assay; assay type: biochemical; conditions: substrate BPNPP, pH 8.5, 37° C. 10 minutes, absorbance at 400 nm
Experimental: Assay Buffer: 50 mM Tris, 10 mM CaCl2, 5 mM MgCl2, 0.02% Brij-35 (v/v), pH 8.5
Substrate: 20 mM Bis(p-Nitrophenyl) Phosphate Sodium Salt (BPNPP) (Sigma, Catalog #N3002)
Enzyme: 0.01 ng/μL Recombinant Human ENPP-2/Autotaxin (rhENPP-2) (R&D Catalog #5255-EN)
96-well clear assay plates
0 μM. […] PF8380 was used as a positive control for the assay. Data was analyzed using GraphPad Prism 8.0.

[2] = target: T1, Recombinant Human ENPP-1 Protein (Homo sapiens (Human), UniProt P22413); experiment: ENPP1 Assay (TMP); assay type: biochemical
Experimental: Assay Buffer: 1 mM CaCl2, 0.2 mM ZnCl2, 50 mM Tris, pH 9.0
Enzyme: 1 ng/μL Recombinant Human ENPP-1 Protein (purified in-house)—Assay Cone.: 5 ng/well
A ten point serial dilution of drugs was prepared in 10× in assay buffer with the final assay concentrations starting at 10 μM, 3 μM, 1 μM, 0.3 μM . . . 0 μM. A dilution of DMSO was included as a control. The assay plate was set up as follows with each well in duplicate: 75 μL assay buffer+10 μL ENPP1 inhibitor or DMSO Dilutions+10 μL Substrate+5 μL Enzyme (5 ng). Both the enzyme and substrate were added to opposite sides of the well to ensure that there was no interaction until all wells had both components. The plate was then centrifuged gently for 10 seconds, followed by an incubation at 37° C. for 45 minutes. […] Data was analyzed using GraphPad Prism 8.0.

[3] = target: T1, Recombinant Human ENPP-1 Protein; assay type: binding; conditions: SYPRO Orange protein melt
Experimental: Recombinant Human ENPP-1 Protein (Purified In-House)
Assay Buffer (1 mM CaCl2, 0.2 mM ZnCl2, 50 mM Tris, pH 9.0)
5000×SYPRO Orange (ThermoFisher cat #S6651)
Each drug was prepared as a 1 Ox solution in the assay buffer and SYPRO Orange was diluted to 10× concentration in water. Wells were set up in duplicate in a 384-well PCR plate as follows: 14 μL assay buffer, 2 μL ENPP1 Inhibitor or DMSO, 2 μL (0.5 μg) ENPP1 protein. Each well was mixed and incubated on ice for 5 minutes. Post incubation, 2 μL of SYPRO Orange was mixed into each well and followed by a gentle centrifugation. The protein melt reaction was run using ViiA7 software with temperatures beginning at 25° C. and increasing by 0.05° C./s to the maximum temperature of 99° C.

T1 sequence (P22413 whole entry, looked up): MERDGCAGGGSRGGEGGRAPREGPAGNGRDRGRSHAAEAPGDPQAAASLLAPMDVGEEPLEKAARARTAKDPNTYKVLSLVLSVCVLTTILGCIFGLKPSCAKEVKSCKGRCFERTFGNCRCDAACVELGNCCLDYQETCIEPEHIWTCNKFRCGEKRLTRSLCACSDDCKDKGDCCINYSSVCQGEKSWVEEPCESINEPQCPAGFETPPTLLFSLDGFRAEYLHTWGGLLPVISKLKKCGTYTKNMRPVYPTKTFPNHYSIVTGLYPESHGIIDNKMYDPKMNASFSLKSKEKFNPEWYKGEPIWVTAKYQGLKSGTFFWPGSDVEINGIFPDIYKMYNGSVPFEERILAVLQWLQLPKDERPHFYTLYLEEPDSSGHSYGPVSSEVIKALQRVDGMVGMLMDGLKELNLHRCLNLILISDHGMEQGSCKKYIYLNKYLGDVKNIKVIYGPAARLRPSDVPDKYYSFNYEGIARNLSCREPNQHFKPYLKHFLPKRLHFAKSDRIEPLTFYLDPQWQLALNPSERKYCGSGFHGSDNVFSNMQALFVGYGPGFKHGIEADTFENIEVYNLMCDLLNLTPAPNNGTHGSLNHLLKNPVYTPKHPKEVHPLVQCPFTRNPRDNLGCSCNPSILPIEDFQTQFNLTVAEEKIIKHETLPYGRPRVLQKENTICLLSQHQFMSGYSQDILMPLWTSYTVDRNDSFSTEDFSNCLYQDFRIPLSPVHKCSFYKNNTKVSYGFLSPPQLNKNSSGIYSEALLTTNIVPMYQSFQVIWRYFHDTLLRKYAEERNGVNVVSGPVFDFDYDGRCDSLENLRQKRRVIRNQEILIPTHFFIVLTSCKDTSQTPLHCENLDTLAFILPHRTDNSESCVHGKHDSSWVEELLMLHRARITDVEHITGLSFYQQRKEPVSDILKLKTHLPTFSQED

COc1cc2ncnc(N3CCCN(C(=O)CNS(N)(=O)=O)CC3)c2cc1OC [Compound 065]
IC50 [1]: > 1 µM | IC50 ([2]; read-out: IC50): 0.00774 µM | Thermal Shift @10 uM (dTm (o C.)) [3]: $$$ ($$$ >3o C.)

COc1cc2ncnc(N3CCCN(S(N)(=O)=O)CC3)c2cc1OC.Cl [Compound 015-HCl, 4-(6,7-dimethoxyquinazolin-4-yl)-1,4-diazepane-1-sulfonamide hydrochloride salt]
IC50 [1]: > 1 µM | IC50 ([2]; hydrochloride salt, read-out: IC50): 0.00597 µM | Thermal Shift @10 uM (dTm (o C.)) [3]: $$$ ($$$ >3o C.)

COc1cc2ncnc(N3CCCN(CCNS(N)(=O)=O)CC3)c2cc1OC.Cl [Compound 063]
Thermal Shift @10 uM (dTm (o C.)) [3]: $$ ($$ <3o C.)

COc1cc2ncnc(N3CCN(S(N)(=O)=O)CC(F)(F)C3)c2cc1OC [Compound 029, 4-(6,7-dimethoxyquinazolin-4-yl)-6,6-difluoro-1,4-diazepane-1-sulfonamide hydrochloride]
IC50 ([2]; read-out: IC50): 0.00121 µM

COc1cc2ncnc(OCCCCCNS(N)(=O)=O)c2cc1OC [Compound 054]
Thermal Shift @10 uM (dTm (o C.)) [3]: $$ ($$ <3o C.)

COc1cc2ncnc(N3CCCN(C(=O)CNS(N)(=O)=O)CC3)c2cc1OC.Cl [Compound 064]
Thermal Shift @10 uM (dTm (o C.)) [3]: $$ ($$ <3o C.)

COc1cc2c(N3CCCN(S(N)(=O)=O)CC3)ncnc2cc1-c1cn[nH]c1 [Compound 020, 4-(6-methoxy-7-(1H-pyrazol-4-yl)quinazolin-4-yl)-1,4-diazepane-1-sulfonamide]
IC50 ([2]; read-out: IC50): 0.0997 µM

COc1cc2ncnc(N3CCCN(S(N)(=O)=O)CC3)c2cc1OC [Compound 015, 4-(6,7-dimethoxyquinazolin-4-yl)-1,4-diazepane-1-sulfonamide]
IC50 ([2]; read-out: IC50): 0.0324 µM

COc1cc2ncnc(-c3ccc(CNS(N)(=O)=O)nc3)c2cc1OC [Compound 047, N-((5-(6,7-dimethoxyquinazolin-4-yl)pyridin-2-yl)methyl) sulfamide]
IC50 [1]: > 1 µM | Thermal Shift @10 uM (dTm (o C.)) [3]: $$ ($$ <3o C.)

COc1cc2ncnc(OCCCCNS(N)(=O)=O)c2cc1OC [Compound 053]
Thermal Shift @10 uM (dTm (o C.)) [3]: $$$ ($$$ >3o C.)

COc1cc2ncnc(SCCCCNS(N)(=O)=O)c2cc1OC [Compound 058, N-(4-((6,7-dimethoxyquinazolin-4-yl)thio)butyl) sulfamide hydrochloride]
Thermal Shift @10 uM (dTm (o C.)) [3]: $$$ ($$$ >3o C.)

COc1cc2ncnc(N3CCCC(CCNS(N)(=O)=O)CC3)c2cc1OC (stereo not shown) [Compound 060, N-(2-(1-(6,7-dimethoxyquinazolin-4-yl)azepan-4-yl)ethyl)sulfamide]
Thermal Shift @10 uM (dTm (o C.)) [3]: $$$ ($$$ >3o C.)

COc1cc2ncnc(NCCCCCNS(N)(=O)=O)c2cc1OC [Compound 057]
Thermal Shift @10 uM (dTm (o C.)) [3]: $$ ($$ <3o C.)

COc1cc2ncnc(CCCCCNS(N)(=O)=O)c2cc1OC [Compound 050]
IC50 [1]: > 1 µM | Thermal Shift @10 uM (dTm (o C.)) [3]: $$ ($$ <3o C.)

COc1cc2ncc(C#N)c(N3CCCC(CCNS(N)(=O)=O)CC3)c2cc1OC (racemic) [Compound 038]
IC50 [2]: 0.00094 µM

COc1cc2ncnc(N3CCCN(CCNS(N)(=O)=O)CC3)c2cc1OC.Cl [Compound 063, (N-(2-(4-(6,7-dimethoxyquinazolin-4-yl)-1,4-diazepan-1-yl)ethyl)sulfamide hydrochloride]
IC50 ([2]; read-out: IC50): 0.0681 µM

COc1cc2ncnc(N3CCCN(S(N)(=O)=O)CC3)c2cc1OC [Compound 015-MES, 4-(6,7-dimethoxyquinazolin-4-yl)-1,4-diazepane-1-sulfonamide methanesulfonate]
IC50 ([2]; methanesulfonate, read-out: IC50): 0.00638 µM

COc1cc2ncnc(N(C)CCCCCNS(N)(=O)=O)c2cc1OC [Compound 061, N-(5-((6,7-dimethoxyquinazolin-4-yl) (methyl)amino)pentyl) sulfamide]
Thermal Shift @10 uM (dTm (o C.)) [3]: $$ ($$ <3o C.)

COc1ccc2ncnc(N3CCCN(S(N)(=O)=O)CC3)c2c1 [Compound 022, 4-(6-methoxyquinazolin-4-yl)-1,4-diazepane-1-sulfonamide]
IC50 ([2]; read-out: IC50): 0.116 µM

COc1cc2ncnc(N3CCCN(CCNS(N)(=O)=O)CC3)c2cc1OC [Compound 062]
IC50 [1]: > 1 µM | Thermal Shift @10 uM (dTm (o C.)) [3]: $$ ($$ <3o C.)

COc1cc2ncc(C#N)c(N3CCCC(NS(N)(=O)=O)CC3)c2cc1OC (stereo not shown) [Compound 042, N-(1-(3-cyano-6,7-dimethoxyquinolin-4-yl)azepan-4-yl)sulfamoylamine]
IC50 ([2]; read-out: IC50): 0.0405 µM

COc1cc2ncnc(NCCCNS(N)(=O)=O)c2cc1OC [Compound 055, N-(3-((6,7-dimethoxyquinazolin-4-yl)amino)propyl) sulfamide hydrochloride]
Thermal Shift @10 uM (dTm (o C.)) [3]: $$ ($$ <3o C.)

COc1cc2ncnc(N3CCCN(C(=O)CNS(N)(=O)=O)CC3)c2cc1OC.Cl [Compound 064, (N-(2-(4-(6,7-dimethoxyquinazolin-4-yl)-1,4-diazepan-1-yl)-2-oxoethyl)sulfamide hydrochloride]
IC50 [2]: 0.072 µM

COc1cc2ncnc(N3CCCC(CCNS(N)(=O)=O)CC3)c2cc1OC (stereo not shown) [Compound 049]
IC50 [1]: > 1 µM | Thermal Shift @10 uM (dTm (o C.)) [3]: $$$ ($$$ >3o C.)

COc1cc2ncnc(N3CC4CC(C3)N(S(N)(=O)=O)C4)c2cc1OC (stereo not shown) [Compound 026, 3-(6,7-dimethoxyquinazolin-4-yl)-3,6-diazabicyclo[3.2.1]octane-6-sulfonamide hydrochloride]
IC50 ([2]; read-out: IC50): 0.118 µM

COc1cc2ncnc(-c3ccc(NCCNS(N)(=O)=O)nc3)c2cc1OC.Cl [Compound 048]
IC50 [1]: > 1 µM | Thermal Shift @10 uM (dTm (o C.)) [3]: $$ ($$ <3o C.)

COc1cc2ncnc(NCCCCNS(N)(=O)=O)c2cc1OC [Compound 056]
IC50 [1]: > 1 µM | Thermal Shift @10 uM (dTm (o C.)) [3]: $$ ($$ <3o C.)
